According to patent US9783509B2, “Six-membered C-N-linked aryl sulfide derivatives and aryl sulfoxide derivatives as pest conrol agents” (BAYER CROPSCIENCE AKTIENGESELLSCHAFT, priority 2013, dated 2017):
Where two headings read alike, the source gives them in different places.

Tests used:
[1] = system: greenhouse red spider mite (Tetranychus urticae); assay: Tetranychus urticae spray test, OP-resistant (bean plants); assay type: in vivo; conditions: application rate 20 ppm, after 7 days
Description: Tetranychus urticae—Spray Test, OP-Resistant
Solvent: 7 parts by weight of dimethylformamide
(§1) Emulsifier: alkylaryl polyglycol ether
(§2) To produce an appropriate active ingredient formulation, 1 part by weight of active ingredient is dissolved using the specified parts by weight of solvent and made up with water containing an emulsifier concentration of 1000 ppm until the desired concentration is attained. To produce further test concentrations, the preparation is diluted with emulsifier-containing water. If the addition of ammonium salts or/and penetrants is required, these are each added in a concentration of 1000 ppm to the formulation solution.
Bean plants (Phaseolus vulgaris) heavily infested by all stages of the greenhouse red spider mite (Tetranychus urticae) are treated by spraying with the active ingredient formulation in the desired concentration.
After 7 days, the efficacy in % is determined. 100% means that all the spider mites have been killed; 0% means that none of the spider mites have been killed.

[2] = log P by reversed-phase HPLC analogously to OECD Guideline 117; assay type: physicochemical; conditions: for chromatographic logP: reversed-phase C18 HPLC column
Method in brief: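 Retention on reversed-phase C18 HPLC (LC-MS), acidic runs at pH 2.7 with formic acid or trifluoroacetic acid/acetonitrile gradients, neutral runs at pH 7.8 with 0.001 molar ammonium hydrogencarbonate/acetonitrile. log P obtained by linear interpolation of retention times against unbranched alkan-2-ones (C3–C16) of known log P.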

[3] = system: engorged adult female cattle ticks (Boophilus microplus); assay: Boophilus microplus injection test; assay type: in vivo; conditions: application rate 20 μg/animal, assessed after 7 days
Description: Boophilus microplus—Injection Test
Solvent: dimethyl sulphoxide
To produce an appropriate active ingredient formulation, 10 mg of active ingredient are mixed with 0.5 ml of solvent and the concentrate is diluted with solvent to the desired concentration.
1 μl of the active ingredient solution is injected into the abdomen of 5 engorged adult female cattle ticks (Boophilus microplus). The animals are transferred into dishes and kept in a climate-controlled room.
The efficacy is assessed after 7 days by laying of fertile eggs. Eggs which are not visibly fertile are stored in a climate-controlled cabinet until the larvae hatch after about 42 days. An efficacy of 100% means that none of the ticks has laid any fertile eggs; 0% means that all the eggs are fertile.

[4] = system: southern root-knot nematode (Meloidogyne incognita); assay: Meloidogyne incognita test (sand, lettuce, acetone solvent, 14 days); assay type: in vivo; conditions: application rate 20 ppm, after 14 days; for pest or weed control at 20 ppm: Meloidogyne incognita, 336 h, read-out: nematicidal efficacy (formation of galls)
Description: Meloidogyne incognita Test
Solvent: 125.0 parts by weight of acetone
To produce an appropriate active ingredient formulation, 1 part by weight of active ingredient is mixed with the stated amount of solvent and the concentrate is diluted with water to the desired concentration.
Vessels are filled with sand, active ingredient solution, an egg/larvae suspension of the southern root-knot nematode (Meloidogyne incognita) and lettuce seeds. The lettuce seeds germinate and the plants develop. The galls develop on the roots
After 14 days, the nematicidal efficacy in % is determined by the formation of galls. 100% means that no galls were found; 0% means that the number of galls on the treated plants corresponds to the untreated control.

[5] = system: greenhouse red spider mite (Tetranychus urticae); assay: Tetranychus urticae spray test, OP-resistant (bean leaf discs); assay type: in vivo; conditions: application rate 500 g/ha, after 6 days; for pest or weed control at 500 g/ha: Tetranychus urticae, foliar, 144 h, read-out: efficacy (spider mites killed)
Method in brief: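 Compound dissolved in acetone/DMF and diluted in water with 1000 ppm alkylaryl polyglycol ether emulsifier, then sprayed on bean leaf discs infested with all stages of OP-resistant T. urticae. Mortality in % scored after 6 days (100% = all mites killed).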

[6] = system: larvae of the mustard beetle (Phaedon cochleariae); assay: Phaedon cochleariae spray test; assay type: in vivo; conditions: application rate 500 g/ha, after 7 days
Description: Phaedon cochleariae—Spray Test
Solvent: 78.0 parts by weight of acetone • • 1.5 parts by weight of dimethylformamide
as §1
as §2, with “water.” for “water. If the addition of ammonium salts or/and penetrants is required, these are each added in a concentration of 1000 ppm to the formulation solution.”
Discs of Chinese cabbage leaves (Brassica pekinensis) are sprayed with an active ingredient formulation of the desired concentration and, after drying, populated with larvae of the mustard beetle (Phaedon cochleariae).
After 7 days, the efficacy in % is determined. 100% means that all the beetle larvae have been killed; 0% means that no beetle larvae have been killed.

[7] = system: green peach aphid (Myzus persicae); assay: Myzus persicae spray test (Chinese cabbage leaf discs); assay type: in vivo; conditions: application rate 500 g/ha, after 6 days
Description: Myzus persicae—Spray Test
Solvent: 78 parts by weight of acetone • • 1.5 parts by weight of dimethylformamide
as §1
as §2, with “water.” for “water. If the addition of ammonium salts or/and penetrants is required, these are each added in a concentration of 1000 ppm to the formulation solution.”
Discs of Chinese cabbage leaves (Brassica pekinensis) infested by all stages of the green peach aphid (Myzus persicae) are sprayed with an active ingredient formulation of the desired concentration.
After 6 days, the efficacy in % is determined 100% means that all the aphids have been killed; 0% means that none of the aphids have been killed.

[8] = [a] acidic range, pH 2.7, formic acid (or trifluoroacetic acid)/acetonitrile
[9] = [b] neutral range, pH 7.8, ammonium hydrogencarbonate/acetonitrile
[10] = pH 2.7, running text, [a] acidic range, pH 2.7, read-out: log P[a]
[11] = pH 2.7, table column, [a] acidic range, pH 2.7, formic acid (or trifluoroacetic acid)/acetonitrile, read-out: LogP[a]

| Structure (SMILES) | LogP[a] [2, 8] | LogP[b] [2, 9] | efficacy (no fertile eggs laid) [3] [%] | nematicidal efficacy (formation of galls) [4] [%] | efficacy (spider mites killed) [5] [%] | other results |
| --- | --- | --- | --- | --- | --- | --- |
| Cc1cc(C)c([S+]([O-])CC(F)(F)F)cc1-n1ncc(=O)n(CC(F)(F)F)c1=O (single isomer, unassigned) [compound 47] | 2.72 | 2.66 | – | – | – | efficacy (spider mites killed) [1]: 100% |
| Cc1cc(F)c(-n2ncc(=O)n(C)c2=O)cc1SCC(F)(F)F [Ex. No. 3, 2-{2-Fluoro-4-methyl-5-[(2,2,2-trifluoroethyl)sulphanyl]phenyl}-4-methyl-1,2,4-triazine-3,5(2H,4H)-dione] | – | – | 100 | – | – | pest or weed control at 20 ppm [4]: 90%; pest or weed control at 500 g/ha [5]: 100%; chromatographic logP [2, 10]: 2.94; chromatographic logP [2, 11]: 2.94 |
| Cc1cc(F)c(-n2ccc(=O)n(C)c2=O)cc1[S+]([O-])CC(F)(F)F (centres unmarked) [Ex. No. 54, 1-{2-Fluoro-4-methyl-5-[(2,2,2-trifluoroethyl)sulphinyl]phenyl}-3-methylpyrimidine-2,4(1H,3H)-dione] | – | – | 100 | – | – | pest or weed control at 20 ppm [4]: 100%; pest or weed control at 500 g/ha [5]: 100%; chromatographic logP [2, 10]: 1.66; chromatographic logP [2, 11]: 1.61; chromatographic logP ([2]; pH 7.8, running text, [b] neutral range, pH 7.8, read-out: log P[b]): 1.61; chromatographic logP ([2]; pH 7.8, table column, [b] neutral range, pH 7.8, ammonium hydrogencarbonate/acetonitrile, read-out: LogP[b]): 1.66 |
| Cc1cc(F)c(-n2ncc(=O)n(CC(F)(F)F)c2=O)cc1SCC(F)(F)F [compound 10] | 3.65 | – | 100 | 100 | 90 | efficacy (beetle larvae killed) [6]: 83% |
| CCn1c(=O)cnn(-c2cc(SCC(F)(F)F)c(C)cc2F)c1=O [compound 19] | 3.31 | 3.27 | 100 | 90 | 100 | – |
| Cc1cc(F)c(-n2ncc(=O)n(CC(C)C)c2=O)cc1SCC(F)(F)F [compound 20] | 4.03 | 4 | 100 | 90 | 100 | – |
| Cc1cc(F)c(-n2ncc(=O)n(CC3CC3)c2=O)cc1SCC(F)(F)F [compound 25] | 3.79 | 3.76 | – | 100 | 100 | efficacy (beetle larvae killed) [6]: 100% |
| Cn1c(=O)cnn(-c2ccc(Cl)c(SCC(F)(F)F)c2)c1=O [compound 32] | 2.18 | 2.16 | – | – | 100 | efficacy (aphids killed) [7]: 90% |
| Cc1cc(F)c(-n2ncc(=O)n(Cc3cccnc3)c2=O)cc1SCC(F)(F)F [compound 43] | 2.36 | 2.87 | – | – | 90 | efficacy (aphids killed) [7]: 90% |
| C#CCn1c(=O)ccn(-c2cc(SCC(F)(F)F)c(C)cc2F)c1=O [compound 79] | 2.78 | 2.81 | – | 100 | 90 | efficacy (beetle larvae killed) [6]: 100% |
| COCn1c(=O)ccn(-c2cc(SCC(F)(F)F)c(C)cc2F)c1=O [compound 80] | 2.62 | 2.66 | – | 100 | – | efficacy (spider mites killed) [1]: 100% |
| Cc1cc(F)c(-n2ccc(=O)n(CC(F)F)c2=O)cc1SCC(F)(F)F [compound 82] | 2.99 | 3.06 | – | 100 | – | efficacy (spider mites killed) [1]: 100% |
